In data set [1] the target is T1, human CYP 1A2 (Homo sapiens, UniProt P05177).
T1 sequence (P05177 1-516): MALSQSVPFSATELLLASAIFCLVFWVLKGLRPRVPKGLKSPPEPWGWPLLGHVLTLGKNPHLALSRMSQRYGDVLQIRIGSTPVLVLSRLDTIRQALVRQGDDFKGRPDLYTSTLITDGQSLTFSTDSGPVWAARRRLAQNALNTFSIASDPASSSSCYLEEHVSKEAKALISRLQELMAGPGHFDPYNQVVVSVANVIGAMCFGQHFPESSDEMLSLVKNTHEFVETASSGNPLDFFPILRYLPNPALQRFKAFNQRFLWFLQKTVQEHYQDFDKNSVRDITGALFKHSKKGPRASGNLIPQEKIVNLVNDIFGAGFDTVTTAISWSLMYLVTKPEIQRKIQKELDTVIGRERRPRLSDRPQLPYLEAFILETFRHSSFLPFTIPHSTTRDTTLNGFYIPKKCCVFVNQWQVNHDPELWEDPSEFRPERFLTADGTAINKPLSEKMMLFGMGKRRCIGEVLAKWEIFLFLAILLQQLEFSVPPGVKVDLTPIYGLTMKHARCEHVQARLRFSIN
Put plainly: CYP inhibition assay, CYP 1A2. Format: in vitro ADME. How it is done: This study was conducted using specific substrates for 5 major human CYP isozymes. These substrates were used as a cocktail (phenacetin, diclofenac, S-mephenytoin, bufuralol and midazolam which are predominantly metabolised by CYP 1A2, 2C9, 2C19, 2D6 and 3A4/5, respectively) at concentrations equivalent to their respective Km values. LC-MS-MS (MRM mode) was used to follow the formation of the CYP specific metabolites. A decrease in the formation of the metabolites in peak area to vehicle control was used to calculate the IC50 value. […] Test compound was used at 6 different concentrations ([…]) to estimate IC50.
The incubation was carried out in 96 deep well plates. Mixture of 180 μL of 20 mg/mL HLM and 90 μL of substrate cocktail solution was added to 15840 μL of phosphate buffer and 179 μL of this mixture was mixed with 1 μL of the test compound, inhibitor cocktail solution or vehicle in each well. The final concentration of DMSO:ACN in the assay mix was 0.3:0.7% v/v. The incubation plate was placed into the water bath and pre-warmed at 37° C. for 5 min before the reactions were started by the addition of 20 μL of 10 mmol/L NADPH solution in phosphate buffer. After the addition of NADPH, the incubation plate was incubated at 37° C. for a further 5 min. The reaction was quenched by the addition of 1 volume (200 μL) of cold ACN containing 3% formic acid and 40 nmol/L verapamil. The plates were kept on ice for 20 min and then centrifuged at 4000 rpm for 30 min to precipitate protein. The supernatant 180 μL was transferred to the analysis plate for LC/MS/MS analysis.

Data set [2] is described as follows: Caco-2 permeability assay. It counts as in vitro ADME. Particulars: human; Caco-2, 10 μM, pH 6.5/7.4. As to the method: Caco-2 Permeability Assay
Permeability in a Caco-2 monolayer was determined at 10 μM. The Caco-2 cell monolayers were washed once with HBSS. TEER was measured both before and after performing all the transport experiments. Papp was measured in apical A to basolateral B direction. Transport buffer, 800 μL (HBSS, pH 7.4) was first dispensed to the basal side of the monolayer. The assay was then initiated by adding 200 μL of compound solution to the apical side (all test compounds were diluted in HBSS, pH 6.5, with 1% DMSO as co-solvent). Two μL and 200 μL of samples were withdrawn, before and at 45 and 120 min post addition of test compound, from the apical donor compartment and the basolateral receiver compartment, respectively. The transwell plates were incubated at 37° C. on a shaker at 480 rpm inside the incubator. All samples were immediately analysed by LC-MS/MS. A passive permeability was determined by complete chemical inhibition of the three major efflux transporters, ABCB1 (P-gp), ABCG2 (BCRP) and ABCC2 (MRP2), in Caco-2 cells using a cocktail of chemical inhibitors: quinidine (P-gp), sulfasalazine (BCRP) and benzbromarone (MRP2).
The apparent permeability coefficient (Papp) was calculated according to the following equation: Papp=(ΔQ/Δt)/(A×CD)[cm/s] (1) where (ΔQ/Δt) […] is the cumulative amount of test compound transported over time to the basolateral (receiver) side, A is the surface area of the monolayer membrane (cm^2) and CD is the average drug concentration in the donor chamber over the period for which (ΔQ/Δt) was determined.

The target in data set [3] is T1, human CYP 1A2. Description: Time dependent CYP inhibition assay, CYP 1A2. Format: in vitro ADME.
The nature of data set [4]: Pharmacokinetic studies (IVPK/POPK) in male Wistar rats. It counts as in vivo. Particulars: Rat; for Oral ‘F’ / ½ life (PO PK): 5 mg/kg Examples 7 and 10, 10 mg/kg Example 13; for clearance / Vd: male, Wistar, IV bolus, 0.5 mg/kg Examples 7 and 10, 2 mg/kg Example 13; for clearance: read-out: CL blood; for Vd: read-out: Vss blood. How it is done:
All in vivo studies were approved by the institutional animal ethics committee. Pharmacokinetics following IV bolus (IVPK) or oral administration (POPK) of compounds was determined in male Wistar rats or male Beagle dogs. For IVPK in rats, Example 7 and Example 10 were administered as solutions in 20% DMA, 80% phosphate-buffered saline and Example 13 was administered as a solution in 10% v/v NMP, 20% v/v DMA in saline. For POPK, Example 7 and Example 10 were administered as suspensions in 20% DMA, 80% phosphate buffered saline and Example 13 was administered as a suspension in 0.5% HPMC and 0.1% Tween 80 through an oral gavage. Example 13 was administered to dogs as a solution in 10% Ethanol, 30% PEG 400, 60% saline for IVPK and as a suspension in 0.5% HPMC, and 0.1% Tween 80 for POPK. Doses used for rat and dog PK were 0.5 mg/kg for Examples 7 and 10 or 2 mg/kg for Example 13 (IVPK). Doses of 5 mg/kg for Examples 7 and 10 were used during POPK. Doses of 10 mg/kg were used for Example 13 during POPK studies. Blood samples were collected at 8 to 13 time points (0, 0.0833, 0.25, 0.283, 0.333, 0.417, 0.75, 1.25, 3.25, 6.25, 12.25, 24.25 h for dog IVPK; 0, 0.25, 0.5, 1, 1.5, 2, 3, 4, 8, 12, 24, 32, 48 h for dog POPK; 0.083, 0.25, 0.5, 1, 2, 4, 7, 24 h for rat IVPK; 0.25, 1, 3, 6, 12, 24, 36, 48 h for rat POPK) after dosing. Blood (rat) or plasma (dog) samples were analysed by LC-MS/MS. PK parameters were estimated by non-compartmental analysis in Phoenix®.

[5] abbreviates: human liver microsomes, substrate cocktail, read-out: IC50 CYP 1A2.

The results in this text go back to patent publication US9957253B2, “Triaminopyrimidine compounds useful for preventing or treating malaria” (MMV MEDICINES FOR MALARIA VENTURE, priority 2014, dated 2018).

Structures can show the parent of a compound that is named as a salt. Where two headings read alike, the source gives them in different places. A value given as a limit tells only on which side of the number the result lay.

In the case of `CCc1cc(Nc2ncc(N3CCN[C@H](C)C3)c(Nc3cc(C)n(C)n3)n2)nc(C)c1F` [Example 7, (R)—N4-(1,5-dimethyl-1H-pyrazol-3-yl)-N2-(4-ethyl-5-fluoro-6-methylpyridin-2-yl)-5-(3-methylpiperazin-1-yl)pyrimidine-2,4-diamine dihydrochloride], the IC50 (usually the concentration that inhibits the measured activity by half) in data set [1] was > 30 µM. For the same compound, in data set [2], the Papp A→B – broadly, the apparent permeability from the apical to the basolateral side of a cell layer – at 120 min, 10 μM turned out to be 5 ×10⁻⁶ cm/s. Moreover, the IC50 in data set [3] was > 56 µM. In addition, in data set [4], the “Oral ‘F’” value amounted to 31% and the “½ life (PO PK)” value is reported as 10 h. In data set [4] (in vivo), the clearance was 26.6 mL/min/kg and the Vd is 12 L/kg.

As to `Cc1nc(Nc2ncc(N3CCN[C@H](C)C3)c(Nc3cnn(C)n3)n2)cc(C2CC2)c1Cl` [Example 10, (R)—N2-(5-chloro-4-cyclopropyl-6-methylpyridin-2-yl)-N4-(2-methyl-2H-1,2,3-triazol-4-yl)-5-(3-methylpiperazin-1-yl)pyrimidine-2,4-diamine dihydochloride], in data set [1] (setting [5]), the IC50 was > 30 µM. This compound also showed a Papp A→B at 120 min, 10 μM in data set [2] of 3.8 ×10⁻⁶ cm/s. Besides, in data set [3], the IC50 is > 56 µM. Besides, in data set [4], the “Oral ‘F’” value is recorded as 17% and the “½ life (PO PK)” value was determined as 30 h. In data set [4] (blood), the clearance was found to be 22.5 mL/min/kg and the Vd was found to be 9.7 L/kg.

Regarding `Cc1nc(Nc2ncc(N3CCN(C)[C@H](C)C3)c(Nc3cc(C)n(C)n3)n2)cc(C2CC2)c1F` [Example 13, (R)—N2-(4-cyclopropyl-5-fluoro-6-methylpyridin-2-yl)-N4-(1,5-dimethyl-1H-pyrazol-3-yl)-5-(3,4-dimethylpiperazin-1-yl)pyrimidine-2,4-diamine], in data set [1] (setting [5]), the half-inhibitory concentration (IC50) is > 30 µM. In data set [2], this compound displayed an apical-to-basolateral permeability (Papp A→B) at 120 min, 10 μM of 19.5 ×10⁻⁶ cm/s. Besides, the IC50 in data set [3] was > 56 µM. Further, in data set [4], the “Oral ‘F’” value was 80% and the “½ life (PO PK)” value came to 10 h. In data set [4] (blood), the clearance is 9.8 mL/min/kg and the Vd came out at 7.9 L/kg.
